Experimental data as given in PubChem BioAssay AID330 (DTP/NCI, 2004).
Toxic doses and inconclusive results are not listed.

Test system: P388 leukemia ip, CD2F1 mice, survival T/C
Assay: NCI In Vivo Anticancer Drug Screen. Data for tumor model P388 Leukemia (intraperitoneal) in CD2F1 (CDF1) mice
Conditions: endpoint: median survival time, higher = longer survival
Outline: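 Mice carrying the transplanted tumor received test compound or vehicle. Survival was recorded in each group, and the value is the treated-group measurement divided by that of the vehicle-treated control group.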

[1] = dose: 12.5 mg/kg/injection, schedule: Q01DX009 (ip), vehicle: saline with Tween-80
[2] = dose: 25.0 mg/kg/injection, schedule: Q01DX009 (ip), vehicle: saline with Tween-80
[3] = dose: 50.0 mg/kg/injection, schedule: Q01DX009 (ip), vehicle: saline with Tween-80
[4] = dose: 100.0 mg/kg/injection, schedule: Q01DX009 (ip), vehicle: saline with Tween-80
[5] = dose: 50.0 mg/kg/injection, schedule: Q01DX005 (ip), vehicle: Klucel (hydroxypropylcellulose) (HPC)
[6] = dose: 100.0 mg/kg/injection, schedule: Q01DX005 (ip), vehicle: Klucel (hydroxypropylcellulose) (HPC)
[7] = dose: 200.0 mg/kg/injection, schedule: Q01DX005 (ip), vehicle: Klucel (hydroxypropylcellulose) (HPC)
[8] = dose: 100.0 mg/kg/injection, schedule: Q04DX003 (ip), vehicle: saline
[9] = dose: 200.0 mg/kg/injection, schedule: Q04DX003 (ip), vehicle: saline
[10] = dose: 400.0 mg/kg/injection, schedule: Q04DX003 (ip), vehicle: saline

With CCS(=O)(=O)CCN1C(=O)CN=C(c2ccccc2F)c2cc(Cl)ccc21 the T/C [1] was 102 % of control, the T/C [2] was 104 % of control and the T/C [3] was 103 % of control. The T/C [4] was 110 % of control.
For CC(=O)Nc1ccc(NC(C)=O)c2c1C(=O)c1ccccc1C2=O, the T/C (dose: 100.0 mg/kg/injection, schedule: Q04DX003 (ip), vehicle: saline with Tween-80) was 100 % of control, the T/C (dose: 200.0 mg/kg/injection, schedule: Q04DX003 (ip), vehicle: saline with Tween-80) was 100 % of control and the T/C (dose: 400.0 mg/kg/injection, schedule: Q04DX003 (ip), vehicle: saline with Tween-80) was 100 % of control.
C=C1C[C@]2(C)c3ccccc3NC(=O)[C@H]12 was tested, and the T/C [5] was 105 % of control, the T/C [6] was 107 % of control and the T/C [7] was 98 % of control.
With O=NN(CCF)C(=O)Oc1cc(Cl)c(Cl)cc1Cl the T/C (dose: 12.0 mg/kg/injection, schedule: Q01DX005 (ip), vehicle: saline with Tween-80) was 170 % of control and the T/C (dose: 25.0 mg/kg/injection, schedule: Q01DX005 (ip), vehicle: saline with Tween-80) was 202 % of control.
With COC1NC(=S)N(C(C)(C)C)C1(C)C (centres undefined) the T/C (dose: 12.5 mg/kg/injection, schedule: Q01DX009 (ip), vehicle: saline) was 99 % of control, the T/C (dose: 25.0 mg/kg/injection, schedule: Q01DX009 (ip), vehicle: saline) was 100 % of control and the T/C (dose: 50.0 mg/kg/injection, schedule: Q01DX009 (ip), vehicle: saline) was 107 % of control. For the same compound, the T/C (dose: 50.0 mg/kg/injection, schedule: Q01DX009 (ip), vehicle: suspension in saline) was 97 % of control.
Cc1cnc(C(N)=O)c(=O)[nH]1 was tested, and the T/C (dose: 100.0 mg/kg/injection, schedule: Q01DX009 (ip), vehicle: saline) was 95 % of control, the T/C [8] was 105 % of control and the T/C (dose: 200.0 mg/kg/injection, schedule: Q01DX009 (ip), vehicle: saline) was 100 % of control. For the same compound, the T/C [9] was 100 % of control, the T/C (dose: 400.0 mg/kg/injection, schedule: Q01DX009 (ip), vehicle: saline) was 100 % of control and the T/C [10] was 100 % of control.
With O=C(O)c1ccccc1C(=O)O.[Cu+2].[NH-]CC[NH-] the T/C (dose: 1.25 mg/kg/injection, schedule: Q04DX002 (ip), vehicle: saline with Tween-80) was 100 % of control, the T/C (dose: 2.5 mg/kg/injection, schedule: Q04DX002 (ip), vehicle: saline with Tween-80) was 99 % of control and the T/C (dose: 5.0 mg/kg/injection, schedule: Q04DX002 (ip), vehicle: saline with Tween-80) was 98 % of control.
For CC(C)(C)OC(=O)NCS(=O)(=O)N(Cc1ccccc1)Cc1ccccc1, the T/C [5] was 102 % of control, the T/C [6] was 101 % of control and the T/C [7] was 97 % of control.
For Oc1c(-c2ccccc2)cc(-c2ccc(Br)cc2)c(-c2ccc(Br)cc2)c1-c1ccccc1, the T/C [1] was 107 % of control, the T/C [2] was 95 % of control and the T/C [3] was 98 % of control. For the same compound, the T/C [4] was 105 % of control and the T/C (dose: 200.0 mg/kg/injection, schedule: Q01DX009 (ip), vehicle: saline with Tween-80) was 96 % of control.
CCOC(=O)Nc1nn(-c2ccc3ccccc3n2)c(=O)[nH]1 was tested, and the T/C (dose: 50.0 mg/kg/injection, schedule: Q01DX009 (ip), vehicle: Klucel (hydroxypropylcellulose) (HPC)) was 113 % of control, the T/C (dose: 100.0 mg/kg/injection, schedule: Q01DX009 (ip), vehicle: Klucel (hydroxypropylcellulose) (HPC)) was 109 % of control and the T/C (dose: 200.0 mg/kg/injection, schedule: Q01DX009 (ip), vehicle: Klucel (hydroxypropylcellulose) (HPC)) was 118 % of control.
For COC(OC)C1(O)CC(C(C)C)OC(=O)N1 (centres undefined), the T/C [8] was 100 % of control, the T/C [9] was 108 % of control and the T/C [10] was 100 % of control.
In the case of N#Cc1ccc(NN=NCCOCCCl)cc1, the T/C (dose: 6.25 mg/kg/injection, schedule: Q01DX009 (ip), vehicle: distilled water + Tween-80) is reported as 97 % of control, the T/C (dose: 12.5 mg/kg/injection, schedule: Q01DX009 (ip), vehicle: distilled water + Tween-80) is reported as 107 % of control and the T/C (dose: 25.0 mg/kg/injection, schedule: Q01DX009 (ip), vehicle: distilled water + Tween-80) is reported as 104 % of control. For the same compound, the T/C (dose: 50.0 mg/kg/injection, schedule: Q01DX009 (ip), vehicle: distilled water + Tween-80) was 103 % of control and the T/C (dose: 100.0 mg/kg/injection, schedule: Q01DX009 (ip), vehicle: distilled water + Tween-80) was 104 % of control.
